Experimental data published in patent US10112937B2, “P2X7 modulators and methods of use” (Janssen Pharmaceutica NV, priority 2013, dated 2018).

Target: human P2X7 (Homo sapiens (Human), UniProt Q99572)
Assay: P2X7 antagonism in human PBMCs (IL-1β release after LPS + Bz-ATP, ELISA)
Type: cell-based
Conditions: for PBMC 1 μM (% control): test compound 1 μM
[1] = human PBMCs, test compound 10 μM
[2] = test compound 10 μM, LPS 30 ng/ml + 0.5 mM Bz-ATP

Sequence of human P2X7 (Q99572 whole entry): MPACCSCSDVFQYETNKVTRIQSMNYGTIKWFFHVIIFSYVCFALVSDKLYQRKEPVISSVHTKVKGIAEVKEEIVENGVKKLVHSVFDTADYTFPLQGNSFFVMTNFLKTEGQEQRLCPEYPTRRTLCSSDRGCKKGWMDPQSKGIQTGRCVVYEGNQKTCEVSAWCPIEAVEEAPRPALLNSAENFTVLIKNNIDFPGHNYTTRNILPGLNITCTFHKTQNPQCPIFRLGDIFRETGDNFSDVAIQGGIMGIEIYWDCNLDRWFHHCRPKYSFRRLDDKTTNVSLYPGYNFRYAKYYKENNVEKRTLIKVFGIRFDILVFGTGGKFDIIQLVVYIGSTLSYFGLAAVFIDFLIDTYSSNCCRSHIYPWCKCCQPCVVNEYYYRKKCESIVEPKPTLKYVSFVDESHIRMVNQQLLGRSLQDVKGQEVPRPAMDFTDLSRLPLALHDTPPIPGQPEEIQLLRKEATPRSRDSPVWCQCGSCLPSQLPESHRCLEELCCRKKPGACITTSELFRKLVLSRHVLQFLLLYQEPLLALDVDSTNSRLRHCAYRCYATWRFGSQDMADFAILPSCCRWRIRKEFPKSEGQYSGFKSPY

Cc1ccnc(-n2nnc3c2CCN(C(=O)c2cccc(Cl)c2Cl)C3C)c1 (stereo not drawn) [Example 237, (2,3-dichlorophenyl)(4-methyl-1-(4-methylpyridin-2-yl)-6,7-dihydro-1H-[1,2,3]triazolo[4,5-c]pyridin-5(4H)-yl)methanone]
PBMC 10 μM (% control) [1]: −5.1 % control

C[C@@H]1c2ncn(-c3ccccn3)c2CCN1C(=O)c1cccc(Cl)c1Cl (single isomer, unassigned) [Example 192, (R*)-(2,3-Dichlorophenyl)(4-methyl-1-(pyridin-2-yl)-6,7-dihydro-1H-imidazo[4,5-c]pyridin-5(4H)-yl)methanone]
PBMC 10 μM (% control) [1]: −6.3 % control
PBMC 10 μM (% control) [2]: −6.3 % control

O=C(c1cccc(C(F)(F)F)c1Cl)N1CCc2c(ncn2-c2ccccc2)C1CO (stereo not drawn) [Example 30, (5-{[2-Chloro-3-(trifluoromethyl)phenyl]carbonyl}-1-phenyl-4,5,6,7-tetrahydro-1H-imidazo[4,5-c]pyridin-4-yl)methanol]
PBMC 1 μM (% control) (human PBMCs): 87.0 % control

C[C@H]1Cc2c(nnn2-c2ncc(F)cn2)CN1C(=O)c1ccnc(C(F)(F)F)c1Cl (single isomer, unassigned) [Example 183, (R*)-(3-chloro-2-(trifluoromethyl)pyridin-4-yl)(1-(5-fluoropyrimidin-2-yl)-6-methyl-6,7-dihydro-1H-[1,2,3]triazolo[4,5-c]pyridin-5(4H)-yl)methanone]
PBMC 10 μM (% control) [1]: −1.2 % control
PBMC 10 μM (% control) [2]: −1.2 % control

C[C@@H]1c2nnn(-c3ccc(F)cc3)c2C[C@H](C)N1C(=O)c1cccc(C(F)(F)F)c1Cl [Example 287, (2-chloro-3-(trifluoromethyl)phenyl)((4R,6S)-1-(4-fluorophenyl)-4,6-dimethyl-6,7-dihydro-1H-[1,2,3]triazolo[4,5-c]pyridin-5(4H)-yl)methanone]
PBMC 10 μM (% control) [1]: −4.1 % control
PBMC 10 μM (% control) [2]: −4.1 % control

Cc1c(C(=O)N2CCc3c(nnn3-c3ncccn3)C2C)cccc1C(F)(F)F (stereo not drawn) [Example 282, (4-methyl-1-(pyrimidin-2-yl)-6,7-dihydro-1H-[1,2,3]triazolo[4,5-c]pyridin-5(4H)-yl)(2-methyl-3-(trifluoromethyl)phenyl)methanone]
PBMC 10 μM (% control) [1]: −5.5 % control

C[C@@H]1c2nnn(-c3cc(F)ccn3)c2CCN1C(=O)c1cccc(C(F)(F)F)c1Cl (single isomer, unassigned) [Example 148, (R*)-(2-Chloro-3-(trifluoromethyl)phenyl)(1-(4-fluoropyridin-2-yl)-4-methyl-6,7-dihydro-1H-[1,2,3]triazolo[4,5-c]pyridin-5(4H)-yl)methanone]
PBMC 10 μM (% control) [1]: −9.6 % control

O=C(c1cccc(Cl)c1Cl)N1CCc2c(ncn2-c2ccn[nH]2)C1 [Example 60, 5-[(2,3-Dichlorophenyl)carbonyl]-1-(1H-pyrazol-5-yl)-4,5,6,7-tetrahydro-1H-imidazo[4,5-c]pyridine]
PBMC 10 μM (% control) [1]: 8.4 % control

C[C@@H]1c2nnn(-c3ccn(C)n3)c2CCN1C(=O)c1cccc(C(F)(F)F)c1Cl (single isomer, unassigned) [Example 169, (R*)-(2-Chloro-3-(trifluoromethyl)phenyl)(4-methyl-1-(1-methyl-1H-pyrazol-3-yl)-6,7-dihydro-1H-[1,2,3]triazolo[4,5-c]pyridin-5(4H)-yl)methanone]
PBMC 10 μM (% control) [1]: 95.0 % control

CCn1nccc1-n1nnc2c1CCN(C(=O)c1cccc(C(F)(F)F)c1Cl)[C@H]2C [Example 407, (S)-(2-chloro-3-(trifluoromethyl)phenyl)(1-(1-ethyl-1H-pyrazol-5-yl)-4-methyl-6,7-dihydro-1H-[1,2,3]triazolo[4,5-c]pyridin-5(4H)-yl)methanone]
PBMC 10 μM (% control) (10 μM test compound, human PBMCs, LPS + Bz-ATP): 77.4 % control

COCCn1ccc(-n2nnc3c2CCN(C(=O)c2cccc(C(F)(F)F)c2Cl)[C@H]3C)n1 (single isomer, unassigned) [Example 249, (S*)-(2-Chloro-3-(trifluoromethyl)phenyl)(1-(1-(2-methoxyethyl)-1H-pyrazol-3-yl)-4-methyl-6,7-dihydro-1H-[1,2,3]triazolo[4,5-c]pyridin-5(4H)-yl)methanone]
PBMC 10 μM (% control) [1]: 5.1 % control

O=C(c1cccc2c1OC(F)(F)O2)N1CCc2c(ncn2-c2ccccc2)C1 [Example 50, 5-[(2,2-Difluoro-1,3-benzodioxol-4-yl)carbonyl]-1-phenyl-4,5,6,7-tetrahydro-1H-imidazo[4,5-c]pyridine]
PBMC 1 μM (% control) (human PBMCs): 96.0 % control

CC1c2nnn(-c3cncnc3)c2C=CN1C(=O)c1cccc(C(F)(F)F)c1Cl (stereo not drawn) [Example 236, (2-Chloro-3-(trifluoromethyl)phenyl)(4-methyl-1-(pyrimidin-5-yl)-1H-[1,2,3]triazolo[4,5-c]pyridin-5(4H)-yl)methanone]
PBMC 10 μM (% control) [1]: 9.3 % control

CC1c2nnn(-c3ncco3)c2CCN1C(=O)c1cccc(C(F)(F)F)c1Cl (stereo not drawn) [Example 250, (2-Chloro-3-(trifluoromethyl)phenyl)(4-methyl-1-(oxazol-2-yl)-6,7-dihydro-1H-[1,2,3]triazolo[4,5-c]pyridin-5(4H)-yl)methanone]
PBMC 10 μM (% control) [1]: −1.3 % control

O=C(c1ccnc(Cl)c1Cl)N1CCc2c(-c3ccccc3)n[nH]c2C1 [Example 104, 6-[(2,3-Dichloropyridin-4-yl)carbonyl]-3-phenyl-4,5,6,7-tetrahydro-1H-pyrazolo[3,4-c]pyridine]
PBMC 1 μM (% control) (human PBMCs): 8.9 % control

O=C(c1cccc(Cl)c1Cl)N1CCc2c(ncn2-c2ccccc2)C1 [Example 3, (2,3-Dichlorophenyl)(1-phenyl-6,7-dihydro-1H-imidazo[4,5-c]pyridin-5(4H)-yl)methanone]
PBMC 1 μM (% control) (human PBMCs): 23.0 % control

Cc1c(C(=O)N2CCc3c(nnn3-c3ncccn3)[C@@H]2C)cccc1C(F)(F)F (single isomer, unassigned) [Example 197, (S*)-(4-methyl-1-(pyrimidin-2-yl)-6,7-dihydro-1H-[1,2,3]triazolo[4,5-c]pyridin-5(4H)-yl)(2-methyl-3-(trifluoromethyl)phenyl)methanone]
PBMC 10 μM (% control) [1]: 2.1 % control

O=C(c1ccc(F)c(Cl)c1Cl)N1CCc2c(nnn2-c2ccccn2)C1 [Example 130, (2,3-Dichloro-4-fluorophenyl)(1-(pyridin-2-yl)-6,7-dihydro-1H-[1,2,3]triazolo[4,5-c]pyridin-5(4H)-yl)methanone]
PBMC 10 μM (% control) [1]: 3.7 % control

CC1c2nnn(-c3cncnc3)c2CCN1C(=O)c1cccc(C(F)(F)F)c1Cl (stereo not drawn) [Example 177, (2-Chloro-3-(trifluoromethyl)phenyl)(4-methyl-1-(pyrimidin-5-yl)-6,7-dihydro-1H-[1,2,3]triazolo[4,5-c]pyridin-5(4H)-yl)methanone]
PBMC 10 μM (% control) [1]: 8.6 % control

Cn1nc(-c2cccnc2)c2c1CN(C(=O)c1cccc(C(F)(F)F)c1Cl)CC2 [Example 108, 6-{[2-Chloro-3-(trifluoromethyl)phenyl]carbonyl}-1-methyl-3-pyridin-3-yl-4,5,6,7-tetrahydro-1H-pyrazolo[3,4-c]pyridine]
PBMC 1 μM (% control) (human PBMCs): 1.1 % control

O=C(c1cccc(Cl)c1Cl)N1CCc2c(nc(C(F)(F)F)n2-c2ccccc2)C1 [Example 58, 5-[(2,3-Dichlorophenyl)carbonyl]-1-phenyl-2-(trifluoromethyl)-4,5,6,7-tetrahydro-1H-imidazo[4,5-c]pyridine]
PBMC 10 μM (% control) [1]: −2.0 % control

C[C@H]1Cc2c(nnn2-c2ccn[nH]2)CN1C(=O)c1cccc(C(F)(F)F)c1Cl (single isomer, unassigned) [Example 351, (S*)-(2-chloro-3-(trifluoromethyl)phenyl)(6-methyl-1-(1H-pyrazol-5-yl)-6,7-dihydro-1H-[1,2,3]triazolo[4,5-c]pyridin-5(4H)-yl)methanone]
PBMC 10 μM (% control) [1]: 0.6 % control

C[C@H]1c2nnn(-c3ncc(F)cn3)c2CCN1C(=O)c1cccc(C(F)(F)F)c1Cl (single isomer, unassigned) [Example 157, (S*)-(2-Chloro-3-(trifluoromethyl)phenyl)(1-(5-fluoropyrimidin-2-yl)-4-methyl-6,7-dihydro-1H-[1,2,3]triazolo[4,5-c]pyridin-5(4H)-yl)methanone]
PBMC 10 μM (% control) [1]: −1.4 % control

C[C@H]1Cc2c(nnn2-c2ncc(F)cn2)CN1C(=O)c1ccnc(C(F)(F)F)c1F [Example 228, (S)-(3-fluoro-2-(trifluoromethyl)pyridin-4-yl)(1-(5-fluoropyrimidin-2-yl)-6-methyl-6,7-dihydro-1H-[1,2,3]triazolo[4,5-c]pyridin-5(4H)-yl)methanone]
PBMC 10 μM (% control) [1]: −1.1 % control

C[C@H]1c2nnn(-c3cccc(C(F)(F)F)n3)c2CCN1C(=O)c1cccc(C(F)(F)F)c1Cl (single isomer, unassigned) [Example 380, (S*)-(2-chloro-3-(trifluoromethyl)phenyl)(4-methyl-1-(6-(trifluoromethyl)pyridin-2-yl)-6,7-dihydro-1H-[1,2,3]triazolo[4,5-c]pyridin-5(4H)-yl)methanone]
PBMC 10 μM (% control) [1]: 113.7 % control

C[C@H]1Cc2c(nnn2-c2ccn[nH]2)[C@H](C)N1C(=O)c1cccc(C(F)(F)F)c1Cl [Example 319, (2-chloro-3-(trifluoromethyl)phenyl)((4S,6S)-4,6-dimethyl-1-(1H-pyrazol-5-yl)-6,7-dihydro-1H-[1,2,3]triazolo[4,5-c]pyridin-5(4H)-yl)methanone]
PBMC 10 μM (% control) [1]: −6.8 % control

CC1c2nnn(-c3cnccn3)c2CCN1C(=O)c1cccc(C(F)(F)F)c1F (stereo not drawn) [Example 273, (2-fluoro-3-(trifluoromethyl)phenyl)(4-methyl-1-(pyrazin-2-yl)-6,7-dihydro-1H-[1,2,3]triazolo[4,5-c]pyridin-5(4H)-yl)methanone]
PBMC 10 μM (% control) [1]: −2.1 % control
